In this test the test system is c-Myc. Nature of the test: c-Myc immunofluorescence assay. Format: cell-based, human. The conditions noted are these: A549 cells, 24 hours, anti-c-Myc immunofluorescence. In short, it runs like this:
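Read-out is imaged c-Myc immunofluorescence, nucleus-segmented, in A549 lung carcinoma cells exposed to compound dose series for 24 h after 48 h growth. Fixation 4% paraformaldehyde, Triton permeabilization, antibody staining at room temperature; EC50 from logistic fit of signal versus concentration.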

`COc1ccc(-c2noc(N3CCC(C(=O)NCC(O)Cc4ccccc4)CC3)n2)cc1` (stereo not shown) [Compound 305, N-(2-hydroxy-3-phenylpropyl)-1-(3-(4-methoxyphenyl)-1,2,4-oxadiazol-5-yl)piperidine-4-carboxamide]: the “Myc Efficacy (−LogEC50)” value was “+ (+ >3 and <5)”.

Take `COc1ccc(-c2noc(N3CCC(C(=O)NCC4CCN(Cc5ccccc5O)C4)CC3)n2)cc1` (stereo not shown) [Compound 321, N-((1-(2-hydroxybenzyl)pyrrolidin-3-yl)methyl)-1-(3-(4-methoxyphenyl)-1,2,4-oxadiazol-5-yl)piperidine-4-carboxamide]: the “Myc Efficacy (−LogEC50)” value is “++ (++ ≥5 and <6)”.

Regarding `COc1ccc(-c2noc(N3CCC(C(=O)NCc4cccc(Cl)c4)CC3)n2)cc1` [Compound 122, N-(3-chlorobenzyl)-1-(3-(4-methoxyphenyl)-1,2,4-oxadiazol-5-yl)piperidine-4-carboxamide], the “Myc Efficacy (−LogEC50)” value was “+ (+ >3 and <5)”.

Regarding `COc1ccc(-c2noc(C3CCC(C(=O)NCC4CCN(Cc5ccccc5)C4)CC3)n2)cc1` (stereo not shown) [Compound 172, (1s,4s)-N-((1-benzylpyrrolidin-3-yl)methyl)-4-(3-(4-methoxyphenyl)-1,2,4-oxadiazol-5-yl)cyclohexane-1-carboxamide], the “Myc Efficacy (−LogEC50)” value is “++ (++ ≥5 and <6)”.

Consider `COc1ccc(-c2noc(N3CCN(C(=O)Nc4ccc(Cl)cc4)CC3)n2)cc1` [Compound 193, N-(4-chlorophenyl)-4-(3-(4-methoxyphenyl)-1,2,4-oxadiazol-5-yl)piperazine-1-carboxamide], for which the “Myc Efficacy (−LogEC50)” value was “++ (++ ≥5 and <6)”.

On to `COc1ccc(-c2noc(N3CCC(C(=O)NC4CCC5(CCOCC5)CC4)CC3)n2)cc1` [Compound 312, 1-(3-(4-methoxyphenyl)-1,2,4-oxadiazol-5-yl)-N-(3-oxaspiro[5.5]undecan-9-yl)piperidine-4-carboxamide], for which the “Myc Efficacy (−LogEC50)” value was “+ (+ >3 and <5)”.

Consider `CCCN1CCN(C(=O)C2CCN(c3nc(-c4ccc(OC)cc4)no3)CC2)CC1` [Compound 104, (1-(3-(4-methoxyphenyl)-1,2,4-oxadiazol-5-yl)piperidin-4-yl)(4-propylpiperazin-1-yl)methanone], for which the “Myc Efficacy (−LogEC50)” value was “+ (+ >3 and <5)”.

As to `O=C(C1CCN(c2nc(-c3ccc(Cl)cc3)no2)CC1)N1CCOCC1` [Compound 166, (1-(3-(4-chlorophenyl)-1,2,4-oxadiazol-5-yl)piperidin-4-yl)(morpholino)methanone], the “Myc Efficacy (−LogEC50)” value is “+ (+ >3 and <5)”.

For `COc1ccc(-c2noc(N3CCC(C(=O)N4CCC(C)CC4)CC3)n2)cc1` [Compound 110, (1-(3-(4-methoxyphenyl)-1,2,4-oxadiazol-5-yl)piperidin-4-yl)(4-methylpiperidin-1-yl)methanone], the “Myc Efficacy (−LogEC50)” value is “+ (+ >3 and <5)”.

With `Cc1ccc(CN2CCC(CNC(=O)N3CCN(c4nc(-c5ccc(OCC(O)CO)cc5)no4)CC3)C2)cc1` (stereo not shown) [Compound 473, 4-(3-(4-(2,3-dihydroxypropoxy)phenyl)-1,2,4-oxadiazol-5-yl)-N-((1-(4-methylbenzyl)pyrrolidin-3-yl)methyl)piperazine-1-carboxamide], the “Myc Efficacy (−LogEC50)” value was “+ (+ >3 and <5)”.

As to `COc1ccc(-c2noc(N3CCC(C(=O)NCC4CCN(CC(F)F)C4)CC3)n2)cc1` (stereo not shown) [Compound 367, N-((1-(2,2-difluoroethyl)pyrrolidin-3-yl)methyl)-1-(3-(4-methoxyphenyl)-1,2,4-oxadiazol-5-yl)piperidine-4-carboxamide], the “Myc Efficacy (−LogEC50)” value is “+ (+ >3 and <5)”.

In the case of `CCN1CCC(CNC(=O)C2CCN(c3nc(-c4ccc(OC)cc4)no3)CC2)C1` (stereo not shown) [Compound 376, N-((1-ethylpyrrolidin-3-yl)methyl)-1-(3-(4-methoxyphenyl)-1,2,4-oxadiazol-5-yl)piperidine-4-carboxamide], the “Myc Efficacy (−LogEC50)” value is “− (− ≤3)”.

On to `COc1ccc(-c2noc(N3CCC(C(=O)NCC4CCN(Cc5ccsc5)C4)CC3)n2)cc1` (stereo not shown) [Compound 357, 1-(3-(4-methoxyphenyl)-1,2,4-oxadiazol-5-yl)-N-((1-(thiophen-3-ylmethyl)pyrrolidin-3-yl)methyl)piperidine-4-carboxamide], for which the “Myc Efficacy (−LogEC50)” value was “++ (++ ≥5 and <6)”.

`COc1ccc(-c2noc(N3CCC(C(=O)NC[C@H]4CCN(Cc5ccc(C)cc5)C4)CC3)n2)cc1` [Compound 106, (R)-1-(3-(4-methoxyphenyl)-1,2,4-oxadiazol-5-yl)-N-((1-(4-methylbenzyl)pyrrolidin-3-yl)methyl)piperidine-4-carboxamide]: the “Myc Efficacy (−LogEC50)” value was “++ (++ ≥5 and <6)”.

Regarding `Cc1ccc(CN2CCC(CNC(=O)C3CCN(c4nc(-c5ccc(OC(F)F)cc5)no4)CC3)C2)cc1` (stereo not shown) [Compound 238, 1-(3-(4-(difluoromethoxy)phenyl)-1,2,4-oxadiazol-5-yl)-N-((1-(4-methylbenzyl)pyrrolidin-3-yl)methyl)piperidine-4-carboxamide], the “Myc Efficacy (−LogEC50)” value is listed as “+++ (+++ ≥6)”.

Regarding `COc1ccc(-c2noc(N3CCN(C(=O)NCc4cc5ccccc5[nH]4)CC3)n2)cc1` [Compound 417, N-((1H-indol-2-yl)methyl)-4-(3-(4-methoxyphenyl)-1,2,4-oxadiazol-5-yl)piperazine-1-carboxamide], the “Myc Efficacy (−LogEC50)” value was “++ (++ ≥5 and <6)”.

In the case of `COc1ccc(-c2noc(N3CCC(C(=O)NCC4CCN(C5CC6(COC6)C5)C4)CC3)n2)cc1` (stereo not shown) [Compound 399, N-((1-(2-oxaspiro[3.3]heptan-6-yl)pyrrolidin-3-yl)methyl)-1-(3-(4-methoxyphenyl)-1,2,4-oxadiazol-5-yl)piperidine-4-carboxamide], the “Myc Efficacy (−LogEC50)” value was “+ (+ >3 and <5)”.

As for `COc1ccc(-c2noc(N3CCN(C(=O)NCC4CCN(CC5CC5)C4)CC3)n2)cc1` (stereo not shown) [Compound 221, N-((1-(cyclopropylmethyl)pyrrolidin-3-yl)methyl)-4-(3-(4-methoxyphenyl)-1,2,4-oxadiazol-5-yl)piperazine-1-carboxamide], the “Myc Efficacy (−LogEC50)” value was “+ (+ >3 and <5)”.

For the molecule `O=C(NCCCN1CCC(Cc2ccccn2)CC1)N1CCN(c2nc(-c3ccc(C(F)(F)F)cc3)no2)CC1` [Compound 459, N-(3-(4-(pyridin-2-ylmethyl)piperidin-1-yl)propyl)-4-(3-(4-(trifluoromethyl)phenyl)-1,2,4-oxadiazol-5-yl)piperazine-1-carboxamide], the “Myc Efficacy (−LogEC50)” value is recorded as “+++ (+++ ≥6)”.

Regarding `C#CCCC1(CCNC(=O)N2CCN(c3nc(-c4ccc(OC)cc4)no3)CC2)N=N1` [Compound 246, N-(2-(3-(but-3-yn-1-yl)-3H-diazirin-3-yl)ethyl)-4-(3-(4-methoxyphenyl)-1,2,4-oxadiazol-5-yl)piperazine-1-carboxamide], the “Myc Efficacy (−LogEC50)” value is “+ (+ >3 and <5)”.

In the case of `COc1ccc(-c2noc(N3CCC(C(=O)NCC4CCN(C[C@@H]5CCCN(C)C5)C4)CC3)n2)cc1` (stereo partly drawn) [Compound 464, 1-(3-(4-methoxyphenyl)-1,2,4-oxadiazol-5-yl)-N-((1-(((R)-1-methylpiperidin-3-yl)methyl)pyrrolidin-3-yl)methyl)piperidine-4-carboxamide], the “Myc Efficacy (−LogEC50)” value was “+ (+ >3 and <5)”.

In the case of `COc1ccc(-c2noc(N3CCN(C(=O)Nc4ccccc4)CC3)n2)cc1` [Compound 209, 4-(3-(4-methoxyphenyl)-1,2,4-oxadiazol-5-yl)-N-phenylpiperazine-1-carboxamide], the “Myc Efficacy (−LogEC50)” value was “+ (+ >3 and <5)”.

With `O=C(NCCCN1CCC(Cc2ccccc2F)CC1)N1CCN(c2nc(-c3ccc(OC(F)F)cc3)no2)CC1` [Compound 438, 4-(3-(4-(difluoromethoxy)phenyl)-1,2,4-oxadiazol-5-yl)-N-(3-(4-(2-fluorobenzyl)piperidin-1-yl)propyl)piperazine-1-carboxamide], the “Myc Efficacy (−LogEC50)” value is given as “+++ (+++ ≥6)”.

With `O=C(C1CCN(c2nc(-c3ccc(O)cc3)no2)CC1)N1CCOCC1` [Compound 182, (1-(3-(4-hydroxyphenyl)-1,2,4-oxadiazol-5-yl)piperidin-4-yl)(morpholino)methanone], the “Myc Efficacy (−LogEC50)” value is “+ (+ >3 and <5)”.

As for `COc1ccc(-c2noc(N3CCC(C(=O)NCC4CCN(Cc5ccc(O)cc5)C4)CC3)n2)cc1` (stereo not shown) [Compound 339, N-((1-(4-hydroxybenzyl)pyrrolidin-3-yl)methyl)-1-(3-(4-methoxyphenyl)-1,2,4-oxadiazol-5-yl)piperidine-4-carboxamide], the “Myc Efficacy (−LogEC50)” value is “++ (++ ≥5 and <6)”.

Regarding `COc1ccc(-c2noc(N3CCC(C(=O)NCc4cncnc4)CC3)n2)cc1` [Compound 162, 1-(3-(4-methoxyphenyl)-1,2,4-oxadiazol-5-yl)-N-(pyrimidin-5-ylmethyl)piperidine-4-carboxamide], the “Myc Efficacy (−LogEC50)” value is “+ (+ >3 and <5)”.

Consider `COc1ccc(-c2noc(N3CCC(C(=O)NCC4CCN(CC5CCSCC5)C4)CC3)n2)cc1` (stereo not shown) [Compound 354, 1-(3-(4-methoxyphenyl)-1,2,4-oxadiazol-5-yl)-N-((1-((tetrahydro-2H-thiopyran-4-yl)methyl)pyrrolidin-3-yl)methyl)piperidine-4-carboxamide], for which the “Myc Efficacy (−LogEC50)” value is “++ (++ ≥5 and <6)”.

On to `COc1ccc(-c2noc(N3CCC(C(=O)Nc4cccc(Cl)c4)CC3)n2)cc1` [Compound 212, N-(3-chlorophenyl)-1-(3-(4-methoxyphenyl)-1,2,4-oxadiazol-5-yl)piperidine-4-carboxamide], for which the “Myc Efficacy (−LogEC50)” value is “+ (+ >3 and <5)”.

With `COc1ccc(-c2noc(NCCCN3CCC(Cc4ccccc4)CC3)n2)cc1` [Compound 125, N-(3-(4-benzylpiperidin-1-yl)propyl)-3-(4-methoxyphenyl)-1,2,4-oxadiazol-5-amine], the “Myc Efficacy (−LogEC50)” value is “+ (+ >3 and <5)”.

For the molecule `COc1ccc(-c2noc(N3CCC(C(=O)NCc4cccs4)CC3)n2)cc1` [Compound 120, 1-(3-(4-methoxyphenyl)-1,2,4-oxadiazol-5-yl)-N-(thiophen-2-ylmethyl)piperidine-4-carboxamide], the “Myc Efficacy (−LogEC50)” value is “+ (+ >3 and <5)”.

As for `Cc1ccc(CN2CC(CNC(=O)N3CCN(c4nc(-c5ccc(C#N)cc5)no4)CC3)CC2=O)cc1` (stereo not shown) [Compound 268, 4-(3-(4-cyanophenyl)-1,2,4-oxadiazol-5-yl)-N-((1-(4-methylbenzyl)-5-oxopyrrolidin-3-yl)methyl)piperazine-1-carboxamide], the “Myc Efficacy (−LogEC50)” value is “++ (++ ≥5 and <6)”.

Source of the values: patent US12344600B2, “c-Myc mRNA translation modulators and uses thereof in the treatment of cancer” (Anima Biotech Inc., priority 2022, dated 2025).
